Test results reported in patent US9422262B2, “Compounds and methods for treating diseases mediated by protease activated receptors” (The Broad Institute, Inc., priority 2010, dated 2016).
“And” between values parts separate entries of the source, which are not always exact repeats. Equal values may be shown once.

Assays:
PAR1 [1] = molecular target: T1, PAR1 (Homo sapiens, UniProt P25116); assay: Ca2+ flux in HEK293 cells overexpressing recombinant PAR1; assay type: cell-based; set-up: expressed in transfected cells; host or cells: HEK293; conditions: concentrations similar to those for inhibition of P-selectin expression; FIG. 1B
T1 sequence (P25116 22-425): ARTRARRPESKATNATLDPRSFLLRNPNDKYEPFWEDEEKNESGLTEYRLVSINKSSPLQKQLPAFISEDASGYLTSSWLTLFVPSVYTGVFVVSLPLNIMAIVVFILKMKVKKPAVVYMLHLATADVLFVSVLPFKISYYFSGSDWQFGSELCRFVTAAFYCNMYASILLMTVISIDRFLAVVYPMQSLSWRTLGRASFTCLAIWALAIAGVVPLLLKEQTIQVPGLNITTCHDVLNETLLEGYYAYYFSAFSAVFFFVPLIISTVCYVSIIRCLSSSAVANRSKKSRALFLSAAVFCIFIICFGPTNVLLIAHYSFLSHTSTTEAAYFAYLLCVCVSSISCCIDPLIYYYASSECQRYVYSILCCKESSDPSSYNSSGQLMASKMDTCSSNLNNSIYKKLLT

cAMP production = cAMP production in washed platelets (competitive immunoassay); assay type: cell-based, human; conditions: 10 μM, PGE1 as control
Description: For this assay, platelets obtained from individual donors were washed and incubated with the probe. Platelets exposed to PGE1 (which causes elevation of platelet cAMP levels) are used as controls. Following incubation, platelets are lysed and evaluated in a commercially available competitive immunoassay of cAMP. Compounds that raise cAMP levels less than 50% of that of PGE1 are considered negative in this assay.

thrombus formation = assay: Thrombus formation following laser-induced injury of the cremaster arteriole in mice; assay type: in vivo
From the text: PAR1 is the thrombin receptor on human platelets and serves an important function in mediating thrombus formation. We tested compound 1 to determine whether it inhibited thrombus formation following laser-induced injury of the cremaster arteriole in mice. The dominant PAR receptor on mouse platelets is PAR4. However, since compound 1 acts at a non-orthosteric site and mouse PAR4 differs from human PAR4, we reasoned that compound 1 may be able to block mouse PAR4. […] When infused into mice at a concentration of 5 mg/kg, compound 1 inhibited platelet accumulation during thrombus formation by >90% (FIG. 4B). Infusion of 5 mg/kg also impaired fibrin generation during thrombus formation (FIG. 4C). Thus, compound 1 blocks both cellular- and coagulation protein-mediated arms of thrombus formation. […] The compound was therefore infused every 30 minutes during the course of these experiments. The short half-life of compound 1 in vivo may be useful in scenarios in which anticoagulation is only required for a short period of time or when anticoagulation needs to be reversed quickly, such as anticoagulation prior to invasive procedures or surgery.
Since there are also situations in which longer term anticoagulation is desired, we performed further studies in the thrombus formation model to assess analogs of compound 1 that may have a more long-lived effect. […] This instability in mouse plasma may have contributed to its short half-life of efficacy in vivo.

Gαq-mediated Ca2+ flux = assay: SFLLRN-induced Gαq-mediated Ca2+ flux in MDCK cells; assay type: cell-based; conditions: FIG. 3C
From the text: (§1) This pattern of inhibition is consistent with that of an allosteric inhibitor. […] This observation raised the possibility that compound 1 blocks PAR1 signaling through Gαq (which mediates platelet aggregation downstream of PAR1), but not Gα12/13 (which mediates shape change downstream of PAR1). A previously identified PAR1 inhibitor, 3,5-difluoro aminoisoxazole (3,5-DFAI), inhibited both shape change and aggregation. Shape change that occurred in the presence of compound 1 was blocked by the Rho kinase inhibitor Y27632, confirming participation of Rho kinase downstream of Gα12/13 in compound-1-resistance shape change (FIG. 3A). […] PAR1-mediated decrease in TER in these cells is dependent on Gα12. […] In contrast, 3,5-DFAI inhibited SFLLRN-mediated decrease in TER (FIG. 3B) and compound 1 inhibited Gαq-mediated Ca^2+ flux in these MDCK cells (FIG. 3C).

platelets [2] = assay: P-selectin surface expression on platelets activated with other platelet agonists; assay type: cell-based, human; conditions: FIG. 1A
Description: To confirm the specificity of compound 1 for PAR1, platelets were incubated with compound 1 and subsequently activated with a variety of platelet agonists. P-selectin surface expression was monitored to detect platelet activation. […] In contrast, an IC50 for inhibition of other agonists was not reached even at concentrations >30-fold its IC50 for PAR1-mediated secretion. To further evaluate whether PAR1 is the target of compound 1, we tested the ability of the compound to inhibit Ca^2+ flux in HEK293 cells overexpressing recombinant PAR1.

PAR1 [3] = molecular target: T1, PAR1; assay: P-selectin surface expression on washed platelets stimulated with SFLLRN (flow cytometry); assay type: cell-based; set-up: endogenous in cells; host or cells: platelets (platelet-rich plasma; washed platelets from individual donors)
Description: (§2) For this assay, the probe is incubated with washed platelets obtained from individual donors. Platelets are subsequently stimulated with 5 μM SFLLRN. After 15 minutes, phycoerythrin-labeled anti-P-selectin antibody (BD Biosciences) is added to the incubation mixture. Following a 20-minute incubation, a sample is analyzed by flow cytometry for staining of P-selectin.
P-selectin surface expression was monitored to detect platelet activation.

[4] = system: Gα12 signaling downstream of PAR1; assay: PAR1-mediated transmembrane resistance (TER) in MDCK cells overexpressing Gα12; assay type: cell-based; conditions: FIG. 3B
From the text: as §1

platelets [5] = assay: PMA- or Ca2+ ionophore-induced platelet activation (P-selectin, flow cytometry); assay type: cell-based, human; conditions: washed platelets, 6 point dose curve
Description: as §2, with “these assays,” for “this assay,”, “donors in a 6 point dose curve.” for “donors.”, “either PMA or Ca2+ ionophore.” for “5 μM SFLLRN.”

Par1 (thrombin) receptor = molecular target: T2, Par1 (thrombin) receptor (Homo sapiens, UniProt P25116); assay: SFLLRN-mediated granule secretion, platelet-rich plasma, luciferin-luciferase ATP readout (primary assay); assay type: cell-based; conditions: two retests of the probe; platelet-rich plasma; read-out: IC50, SFLLRN-mediated granule secretion
T2 construct: endogenous in cells; host or cells: platelets (platelet-rich plasma; washed platelets from individual donors)
T2 sequence (P25116 22-425): T1 sequence (P25116 22-425)
Description: The compounds were tested in two independent IC50 determination experiments using the primary assay measuring SFLLRN-mediated granule secretion. For this assay, platelet-rich plasma is treated with putative inhibitors prior to activation by the SFLLRN peptide, which targets the Par1 (thrombin) receptor. Upon activation, platelets secrete dense granules, which are concentrated with ATP. Platelet activation and possible inhibition are monitored by a luciferin-luciferase assay (CellTiter-Glo without lysis reagent) to measure the ATP secreted from activated platelets. Luminescence measurements are made using a plate reader (Envision, PerkinElmer) capable of detecting luminescence.

changes in Ca2+ flux in HEK293 cells overexpressing recombinant PAR1 (PAR1 [1]): inhibits | concentration tested without reaching an IC50 for other agonists, relative to IC50 for PAR1-mediated secretion (platelets [2]): > 30 fold | IC50 for inhibition of other agonists (platelets [2]; P-selectin surface expression): not reached | inhibition of the expression of P-selectin (PAR1 [3]; 1 μM compound, washed platelets, activation with 5 μM SFLLRN): 90% | IC50 (PAR1 [3]; FIG. 1A, read-out: IC50, activation mediated through PAR1 (P-selectin surface expression)): ~0.3 µM | pattern of inhibition of PAR1-mediated platelet activation (PAR1 [3]; varying concentrations of compound and SFLLRN, FIG. 2): non-competitive inhibition | IC50 (Par1 (thrombin) receptor): 4.87 µM and 5.28 µM
Structure (SMILES): CCCC(=O)Nc1cccc(NC(=O)c2ccccc2Br)c1 [Compound 1]
modulation of cAMP production (cAMP production): inactivity | inhibition of platelet accumulation during thrombus formation (thrombus formation; 5 mg/kg infused every 30 minutes, FIG. 4B): > 90% | fibrin generation during thrombus formation (thrombus formation; infusion of 5 mg/kg, FIG. 4C): impaired | Gαq-mediated Ca2+ flux (Gαq-mediated Ca2+ flux): inhibited | PAR1-mediated (SFLLRN) change in TER [4]: failed to inhibit | effect on Ca2+ ionophore-induced activation of platelets (platelets [5]): did not show any effect | effect on PMA-induced activation of platelets (platelets [5]): did not show any effect
